Assay results reported in a melting point compilation (Tetko et al.; mined from patent text by program, amines drawn as free bases though some values may be those of a salt).

Row | SMILES | melting point [°C]
1 | CCc1ccccc1-n1c(=O)[nH]c2c(C(N)=O)nc(-c3cccc(O)c3)nc21 | 355 to 357
2 | CCOC(=O)c1nn(-c2ccc(Cl)cc2)c2c1CCCC2 | 139 to 140
3 | CCCc1c(S(=O)(=O)CCCOc2ccc(C(C)=O)c(OCCCC(=O)OCC)c2CCC)ccc(C(C)=O)c1O | 77 to 79
4 | CC=CC(=O)c1oc2c(-c3ccc(F)cc3)c(-c3ccc(S(C)(=O)=O)cc3)nn2c1C | 197 to 199
5 | O=C(O)c1cccc(SCc2c(O[C@H](Cn3ccnc3)c3ccccc3)ccc3c2CCCC3=O)c1 | 225
6 | CC1=CC(=O)CC(C)(C)C1(O)C/C=C(C)/C=C\O (centres undefined) | 127 to 129
7 | O=C(Nc1ccccc1)Nc1ccnc(F)c1 | 179 to 180
8 | CCCCCCC1CCC(c2ccc(CCCCC)cc2)OC1=O (centres undefined) | 101 to 102
9 | Cc1nc(SCc2cnccc2C(=O)O)sc1CC(=O)O | 207 to 211
10 | CCCCc1ccc(-c2[nH]nc3c2C(=O)c2c(NC(C)=O)cccc2-3)cc1 | 259
11 | OCCc1ccc(OCc2ccc3ccccc3n2)cc1 | 145
12 | CN(CCO)c1cccc2c1C(=O)c1c(cccc1N(C)CCO)C2=O | 168 to 178
13 | CC(=O)NC(C)Cc1cc(C)c(C)cc1CC(=O)O (centres undefined) | 67 to 69
14 | O=C1c2cccc3cccc(c23)C(=O)N1CCCCN1CCC(O)(c2ccccc2)CC1 | 138 to 139
15 | N#Cc1ccccc1C=Cc1ccccc1C#N | 187 to 189
16 | O=P(O)(O)C(NCc1ccccc1)c1ccccc1 (centres undefined) | 233 to 236
17 | CC(C)(Oc1ccc2c(c1)CC(NCc1ccccc1)CC2)C(=O)O (centres undefined) | 240 to 242
18 | O=C(c1cccc2cc[nH]c12)N1CCN(c2cccc(C(F)(F)F)c2)CC1 | 147 to 151
19 | Cc1ccc(S(=O)(=O)Nc2ccc(-c3ccc(S(=O)(=O)n4ccc(C=CC(=O)NO)c4)cc3)cc2)cc1 | 119 to 126
20 | CN1CCC(N(C)c2ncc3ncnc(Nc4cccc([N+](=O)[O-])c4)c3n2)CC1 | 199 to 203
21 | O=P(O)(O)C(CCCc1ccc(-c2ccccc2)cc1)P(=O)(O)O | 199 to 200
22 | CCCn1cc2c(C3C(=O)Nc4ccc(C#N)cc43)nc(NCCc3ccccn3)nc2n1 (centres undefined) | > 300
23 | COC(=O)c1ccc(NCC=Cc2ccccc2)cn1 | 131 to 133
24 | CCCc1nc2ccccc2c(C(=O)O)c1Oc1ccc(-c2ccccc2C(N)=O)cc1 | 230
25 | C=Cc1ncc2c(c1O)COC2C (centres undefined) | 237 to 238
26 | COc1cc(Nc2c(C#N)cnc3ccc(-c4csc(CN5CCOCC5)c4)cc23)c(Cl)cc1Cl | 145 to 147
27 | CC1(c2ccc(I)cc2)CO1 (centres undefined) | 44 to 45

Row | SMILES | melting point [°C]
28 | COc1ccc(-c2coc3ccc(-c4nnc(SCc5cccc(C(F)(F)F)c5)o4)cc23)cc1 | 119 to 120
29 | C[C@@H](NC(=O)c1c[nH]c2ncc(-c3nn(C)c4cc(Cl)ccc34)nc12)C(=O)N1CC(F)C1 | 257 to 260
30 | Clc1ccc(CNc2cccnc2)cc1 | 107 to 108
31 | Oc1cccc2c1cc(C1=NCCN1)n2-c1ccccc1 | > 270
32 | COc1ccc(C(=O)c2ccc(SCc3ccccc3)s2)cc1 | 103 to 105
33 | Cc1ccc2c(c1)C1CN(Cc3ccccc3)CCC1N2 (centres undefined) | 179 to 182
34 | O=C(CBr)c1cc(-c2cccc(C(F)(F)F)c2)nc(C(F)(F)F)c1 | 87 to 89
35 | COc1cc([N+](=O)[O-])c(N)cc1C(=O)N1CCCC1 | 159 to 162
36 | O=P12CN3CN(C1)S(=O)(=O)N(C3)C2 | 245 to 246
37 | O=C(O)C1COC(C(F)(F)F)(C(F)(F)F)O1 (centres undefined) | 62 to 63
38 | COC(=O)c1ccc(I)cc1N | 63 to 67
39 | C[C@]12C[C@H](c3ccc(OCCCCCS(=O)(=O)CCCC(F)(F)C(F)(F)F)cc3)[C@@H]3c4ccc(OC5CCCC5)cc4CC[C@H]3[C@@H]1CC[C@@H]2O | 166
40 | Clc1ccc(C2CCN(Cc3cncc(-c4ccccc4)c3)CC2)cc1 | 142 to 143
41 | CCOCCOC(=O)C1=C(C)NC(CO)=C(C(=O)OCC)C1c1cccc([N+](=O)[O-])c1 (centres undefined) | 99 to 100
42 | O=C(c1ccccc1)N1CCNc2ncc(I)cc21 | 164 to 166
43 | Fc1ccc(Cn2c(NC3CCN(CCNC(=S)NCc4cccnc4)CC3)nc3ccccc32)cc1 | 147
44 | Cc1ccc2c(c1)C(=O)N1CCN=C1N2N1CCCCC1 | 197 to 199
45 | CCNC1C(C)CN(c2c(F)cc3c(=O)c(C(=O)O)cn(C4CC4)c3c2OC)CC1C (centres undefined) | 250 to 252
46 | Nc1ccccc1C(=O)NCCN1CCC2(CC1)C(=O)NCN2c1ccc(F)cc1 | 195
47 | CC(Cl)(Cl)C(NC(=O)c1cccc(Cl)c1)NC(=NC#N)Nc1ccc(Cl)nc1 (centres undefined) | 138 to 140
48 | CCCc1cc(CCCOc2c(C)cc(-c3noc(C)n3)cc2C)on1 | 69 to 70
49 | [N-]=[N+]=NS(=O)(=O)c1cc(C(=O)O)c(O)c(S(=O)(=O)N=[N+]=[N-])c1 | 184 to 186
50 | N#CC1(Nc2ccccc2)CCN(C2CCC(c3ccc(F)cc3)(c3ccc(F)cc3)CC2)CC1 | 139 to 140
51 | COc1ccc(C2CC(c3ccccc3)=NN2c2ccc(C(=O)O)cc2)cc1 (centres undefined) | 226
52 | CSCOC1CCC2C3CCC4=CC(=O)C=CC4(C)C3(F)C(OC(C)=O)CC12C (centres undefined) | 142 to 143
53 | O=C1Cc2ccccc2Sc2cc(F)c(F)cc21 | 110 to 112

Continued, values first:

Row | melting point [°C] | SMILES
54 | 175 | O=C(NCc1cccnc1)c1ccc2n1Cc1ccccc1N(C(=O)/C=C/c1ccccc1)C2
55 | 107 to 112 | CCOCn1c(-c2ccc(Cl)cc2)c(S(=O)(=O)c2ccc(Cl)cc2)c(Br)c1C(F)(F)F
56 | 92 | Cc1cn(-c2cccc(C3=Nc4ccc(-c5ccccc5F)cc4NC(=O)C3)c2)c(C)n1
57 | 293 to 294 | COc1ccc2c(c1)S(=O)(=O)c1nccnc1N2
58 | 170 to 173 | CCOC(=O)NNC(=O)NCCOc1ccccc1
59 | 51 to 52 | COC(=O)C(O)c1ccc(C#N)cc1 (centres undefined)
60 | 89 to 91 | COC(=O)CCCc1nc(-c2ccc(F)cc2)c(-c2ccc(S(C)(=O)=O)cc2)o1
61 | 278 | Cc1ccc(C(=O)C2=C(O)C(=O)N(c3ccc(C)nn3)C2c2ccc(C(F)(F)F)cc2)cc1 (centres undefined)
62 | 91 to 93 | CCCCc1ccc(C(=O)SCC2C(=O)OCC2c2ccccc2)cc1 (centres undefined)
63 | 190 to 191 | CCOC1=NS(=O)(=O)c2cccc([N+](=O)[O-])c21
64 | 122 to 133 | CC(=O)N[C@@H](CCC(N)=O)C(=O)NC1(C(=O)NCCCCNC(N)=NC#N)Cc2ccccc2C1
65 | 174 to 176 | CSc1nc(N)c2ncn(COCCO)c2n1
66 | 118 to 120 | Cc1cc(C(=S)CBr)ccc1O
67 | 197 to 199 | CCOC(=O)c1sc(NC(=O)c2cc(Br)ccc2O)nc1-c1ccccc1
68 | 76 | CCOC(=O)CCNCC(O)COc1ccc(OC)cc1C#N (centres undefined)
69 | 101 to 102 | CCCSc1ccc(-c2coc3ccc(-c4nnc(C)o4)cc23)cc1
70 | 188 to 189 | COc1cc(C(=O)CC(=O)c2ccccc2O)cc([N+](=O)[O-])c1OC
71 | 251 to 253 | O=C(O)c1cn2c3c(ccc([N+](=O)[O-])c3c1=O)C1CCCCC12 (centres undefined)
72 | 128 to 130 | COc1ccnc(Cc2cnc(NCCSCc3nc[nH]c3C)[nH]c2=O)c1
73 | 136 to 137 | CCC(C)(C)N=C(Nc1cncnc1)c1ccc(Cl)cc1Cl
74 | 101 to 102 | CCc1cccc(C)c1S(=O)(=O)c1nn(C(=O)N(CC)CC)cc1C#N
75 | 82 to 83 | O=C1C(Cl)=C(c2ccccc2)C(=O)N1c1ccccc1
76 | 149 to 150 | Cc1c(N)cc2c(c1C)OC(C)(C)C2=O

Row | melting point [°C] | SMILES
77 | 106 to 108 | O=C(NC1CCCCC1)N(CCCN1CCC(Cc2ccccc2)CC1)c1ccccc1
78 | 52 to 57 | COCCc1nc2c(N)nc3ccccc3c2n1CCOCCN(C)C(=O)C1CCCCC1
79 | 147 to 149 | CCOC(=O)C1=C(C)NC(CC)=C(C(=O)OCC)C1c1cc([N+](=O)[O-])ccc1OCCCCCl (centres undefined)
80 | 65 to 67 | CC(=C(C#N)C(=O)c1ccc(F)cc1)N(C)C
81 | 214 to 216 | CC1(C)OC(=O)Nc2ccc(-c3cc(Br)cc(OC(F)(F)F)c3)cc21
82 | 85 to 87 | CCOC(=O)c1cnoc1-c1cccc(OC)c1
83 | 107 to 109 | COCCCS(=O)(=O)NC(=O)CC(C)c1ccc(OCCOC)cc1Oc1ncc(C(F)(F)F)cc1Cl (centres undefined)
84 | 71.5 to 72 | C#Cc1ccc(C(=O)OC(C)(C)C)cc1
85 | 181 to 182 | COC(=O)C(C)(c1ccc([N+](=O)[O-])cc1)c1cc(C)c(C(=O)c2ccc(Cl)cc2)n1C (centres undefined)
86 | 247 to 249 | Cc1[nH]c(=O)c(C#N)cc1-c1ccc(OCCCC(=O)O)cc1
87 | 186 to 190 | C[C@H]1CN(c2c(F)cc3c(=O)c(C(=O)O)cn(C4CC4)c3c2Br)C[C@H]1N (relative stereo)
88 | 130 to 133 | CC(=C(c1ccccc1)c1ccccc1)P(C(C)(C)C)C(C)(C)C
89 | 200 to 202 | N#Cc1cc(O)ccc1[N+](=O)[O-]
90 | 125 to 127 | CCNC(=O)/C=C1\CCc2ccc(F)cc21
91 | 103 to 105 | CC(C)CCSc1cccc(-c2nc(=O)c3ccccc3s2)n1
92 | 51.2 to 52.8 | CCCOC(=O)CC(c1ccc(OC)cc1)N1C(=O)c2ccccc2C1=O (centres undefined)
93 | 132 to 138 | NC(=O)c1cnc2ccccc2c1
94 | 154 | COc1cc(-n2c(=O)cc(C(F)(F)F)n(C)c2=O)c(F)cc1Br
95 | 185 to 188 | FC(F)c1nc2ccccc2n1-c1nc(NCc2ccccc2)nc(N2CCOCC2)n1
96 | 164 to 167 | CCCCNS(=O)(=O)c1ccc(S(N)(=O)=O)cc1
97 | 97 to 99 | CC(C)(O)c1ccc(CC(=O)Nc2cccnc2Oc2cccc(C#N)c2)cc1
98 | 104 to 107 | CC(C)(C)c1cc(C(=O)Nc2cccc(OCc3cccnc3)c2)ccc1O
99 | 111 to 112 | CC(C)C(NC(=O)[C@@H]1CCCN1C(=O)[C@@H](NC(=O)c1ccc(C(=O)N2CCOCC2)nc1)C(C)C)C(=O)C(F)(F)C(F)(F)F (some centres undefined)
